Values quoted from earlier work in patent US20020025310A1, “Compositions and methods for promoting healthy joints” (priority 2000, published 2002).

How the values were obtained:
[1] = 200 to 400 mg/day
[2] = test system: isolated alveolar cells; settings: animal studies
[3] = test system: complex I, IV, and V in hepatic mitochondria; settings: senescent mice, compared to controls without NAC supplementation
[4] = COPD patients, 600 mg per day oral, compared to patients without NAC
[5] = 800 mg orally, heavy aerobic exercise
[6] = target: PARS (Homo sapiens, UniProt P09874); settings: 100 mg/day supplementation, smokers with varying levels of cytogenic damage
Sequence of PARS (P09874 whole entry): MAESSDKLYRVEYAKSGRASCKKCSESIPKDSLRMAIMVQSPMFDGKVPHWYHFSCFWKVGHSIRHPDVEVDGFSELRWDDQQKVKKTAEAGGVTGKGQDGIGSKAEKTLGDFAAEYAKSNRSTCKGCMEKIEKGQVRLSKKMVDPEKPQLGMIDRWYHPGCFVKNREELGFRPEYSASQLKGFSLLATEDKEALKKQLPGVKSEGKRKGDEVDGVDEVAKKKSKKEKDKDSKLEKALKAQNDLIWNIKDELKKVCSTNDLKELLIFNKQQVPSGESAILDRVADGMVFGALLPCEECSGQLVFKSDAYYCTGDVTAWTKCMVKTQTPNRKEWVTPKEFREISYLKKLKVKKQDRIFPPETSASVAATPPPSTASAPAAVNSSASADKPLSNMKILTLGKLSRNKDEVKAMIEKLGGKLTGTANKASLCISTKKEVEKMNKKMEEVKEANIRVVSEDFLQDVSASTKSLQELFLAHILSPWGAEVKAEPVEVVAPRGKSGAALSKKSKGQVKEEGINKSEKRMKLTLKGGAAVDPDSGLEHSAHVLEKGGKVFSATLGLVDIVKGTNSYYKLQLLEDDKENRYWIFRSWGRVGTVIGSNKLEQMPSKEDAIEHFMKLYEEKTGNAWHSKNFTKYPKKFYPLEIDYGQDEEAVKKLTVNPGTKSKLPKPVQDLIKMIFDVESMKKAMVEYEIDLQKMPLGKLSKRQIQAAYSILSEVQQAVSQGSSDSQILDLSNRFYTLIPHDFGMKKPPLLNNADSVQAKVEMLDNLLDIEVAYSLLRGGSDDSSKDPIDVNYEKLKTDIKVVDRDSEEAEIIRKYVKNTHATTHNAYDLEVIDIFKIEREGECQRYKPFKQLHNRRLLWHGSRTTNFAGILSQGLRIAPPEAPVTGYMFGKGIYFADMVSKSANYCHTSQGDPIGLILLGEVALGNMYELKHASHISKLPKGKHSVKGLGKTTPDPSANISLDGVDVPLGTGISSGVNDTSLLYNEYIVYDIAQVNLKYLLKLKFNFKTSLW

Structure (SMILES)	glutathione disulfide-to-reduced glutathione ratio [1]	intercellular glutathione levels [1]	intracellular ATP depletion after oxidant exposure [2]	individuals reporting side effects (400 to 6400 mg/m^2/day in divided doses)	significant side effects (400 to 6400 mg/m^2/day in divided doses, doubled each month)	dose exceeded before any difficulty was reported (individuals reporting side effects)	specific activities of complex I, IV, and V in hepatic mitochondria [3]	bacterial-positive cultures [4]	clinical course [4]	use of bronchodilators [4]	exercise-associated damage in leukocyte DNA [5]	glutathione-to-glutathione disulfide ratio [5]	plasma lipid peroxide level [5]	PARS activity [6]
CC(=O)N[C@@H](CS)C(=O)O [NAC, N-acetylcysteine]	reduction	significant increase	helps protect	13 of 26	bad taste and GI disturbances	> 800 mg/m^2	significantly higher	fewer bacterial-positive cultures	improved clinical course	reduced use of bronchodilators	less exercise-associated damage in leukocyte DNA	increased	lowered	
O=C(O)c1cccnc1 [nicotinic acid]														did not result in a significant reduction
